{"source": "patent US20240182406A1", "about": "“COMPOUNDS AS SOLUBLE EPOXIDE HYDROLASE INHIBITORS” (UNIVERSITAT DE BARCELONA, priority 2021, published 2024)", "key": {"[1]": {"tested_on": "SH-SY5Y cells", "details": "100 μM, 24 h", "procedure": "50 ul of Cell titer Glo reagent was added to each well and incubated for 10 min."}, "[2]": {"tested_on": "C57BL/6 mice", "test": "Cerulein-induced acute pancreatitis murine model", "type": "in vivo, mouse", "excerpt": "Acute pancreatitis (AP) is a potentially life-threatening gastrointestinal disease, and its incidence has been increasing over the last few decades. The onset of the disease is thought to be triggered by intra-acinar cell activation of digestive enzymes that results in interstitial edema, inflammation and acinar cell death that often leads to a systemic inflammation response. […] The experimental procedure for the in vivo efficacy study followed already published protocols (Mol Pharmacol. 2015 August; 88(2):281-90)\nIn vivo efficacy study. Forty-one male C57BL/6 mice (eight week-old; approximately 24 g) were supplied by Envigo (Barcelona, Spain) (Ref. 16512). During the experimental procedure, animals were identified with permanent marker (tail code numbers). […] Animals were kept in an environmentally controlled room (ventilation, temperature 22±2° C. and humidity 35-65%) on a 12-h light/dark cycle. A period of 7 days of acclimatization underwent between the date of arrival and the start of the procedure. […] The maintenance diet was supplied by Harlan Interfauna Ibérica S. L. (2018 Harlan Teklad Global Diets). Diet will be provided to the animals ad libitum, but they were fasted overnight before first cerulein injection, and food was replaced after last cerulein injection. Tap water was supplied by CASSA (Servei d'Aigües de Sabadell) ad libitum. The animals were maintained in accordance with European Directive for the Protection of Vertebrate Animals Used for Experimental and other Scientific Purposes (86/609/EU). Decree 214/1997 of 30th July. Ministry of agriculture, livestock and fishing of the Autonomous Government of Catalonia, Spain. Royal Decree 53/2013 of 1st February (Spain). All the experimental procedures were approved by the Ethical Committee on human and animal experimentation (CEEAH) of Universitat Autònoma de Barcelona (UAB) (procedure number: 4107) and by the Animal Experimentation Commission of the Generalitat de Catalunya (Catalan Government) (DAAM: 10146). […]"}, "[3]": {"tested_on": "mouse primary microglia", "test": "AβO-induced microglial activation, qPCR", "type": "cell-based", "details": "pretreated with compound followed by Aβ1-42 (2 μM)", "procedure": "To validate the inhibition efficacy of sEH, 3×10^5 microglia isolated from CD1 mouse brain were seeded onto 12 well culture plates in microglia medium.\nTotal RNAs were isolated from microglia or astrocyte using a Quick-RNA kit (Zymo Research, Inc., Irvine, CA, USA). The concentration of total RNAs was measured using a UV-Vis spectrophotometer (NanoDrop8000, Thermo Fisher Scientific Inc., Wilmington, DE, USA) and reverse-transcribed with a high-capacity cDNA reverse transcription kit (Applied Biosystems, Carlsbad, CA, USA). Gene expression was quantified by Fast SYBR green real-time PCR on a Quantstudio 5 system (Applied Biosystems). The primer sequences are listed below (Table 8). Data were analyzed according to the comparative Ct method. Glyceraldehyde 3-phosphate dehydrogenase (Gapdh) was used to normalize the amounts of cDNA within each sample."}, "[4]": {"tested_on": "CD1 mice", "test": "Seizure assay (pentylenetetrazole, PTZ test)", "type": "in vivo, mouse", "procedure": "Test compounds were dissolved in 20% hydroxypropyl-beta-cyclodextrin and concentration was calculated according to the animal weigh to reach the precise dose. Animals were housed in standard care facilities with a 12 hours light-dark cycle with free access to water and food.\nTo investigate the ability of compounds to cross the blood-brain barrier (BBB), a standard acute test involving the administration of pro-convulsant pentylenetetrazole (PTZ) was employed [Inceoglu et al, PLoS ONE, 2013, 8(12), e80922; WO 2015/148954 A1]. In the test, PTZ was administered at 85 mg/Kg by subcutaneous route, time to onset of first clonic seizure, average of clonic seizures, tonic seizure latency and lethality were monitored for 30 min. Vehicles or compounds were administered by gavage at 5 mg/kg 1 h prior to pro-convulsant."}, "[5]": {"details": "5 mg/kg by gavage 1 h prior to PTZ 85 mg/Kg s.c., monitored 30 min"}}, "note": "Marks after values point to notes of the source that are not given here."}
{"smiles": "O=C(NC12CC3CC(Cl)(CC(C1)c1ccccc13)C2)N[C@H]1CC[C@H](Oc2ccc(C(=O)O)cc2)CC1", "note": "[Example 2, 4-[((1r,4r)-4-(3-(9-chloro-5,6,8,9,10,11-hexahydro-7H-5,9:7,11-dimethanobenzo[9]annulen-7-yl)ureido)cyclohexyl)oxy]benzoic acid]", "values": [{"measurement": "neuronal cell toxicity (viability)", "setting": "[1]", "result": "did not show any neuronal cell toxicity"}, {"measurement": "histologic analysis of pancreas (H&E), severity of cerulein-induced pancreatitis", "setting": "[2]; both doses 0.1 and 0.3 mg/kg IP", "result": "ameliorated cerulein-induced effects"}, {"measurement": "body weight change at end of study", "setting": "[2]; cerulein 50 μg/kg IP x12, single dose 0.3 or 0.1 mg/kg IP, only 0.3 mg/kg significant (p<0.01 vs Cerulein)", "result": "increased body weight"}, {"measurement": "histologic analysis of pancreas (H&E), pancreatic damage, edema, neutrophils infiltration", "setting": "[2]; higher dose 0.3 mg/kg IP", "result": "more efficiently reversed the pancreatic damage, edema and neutrophils infiltration"}, {"measurement": "mRNA for pro-inflammatory cytokines II-6 and II-1b", "setting": "[3]", "result": "prevented"}, {"measurement": "Average clonic seizure", "setting": "[4]; [5]", "result": 1.25}, {"measurement": "Mean time to clonic seizure latency", "setting": "[4]; [5]", "result": 1006.5, "unit": "s"}, {"measurement": "Protected from tonic/total (Mortality)", "setting": "[4]; [5]", "result": "6/6****"}, {"measurement": "Mean time to tonic seizure", "setting": "[4]; 5 mg/kg by gavage 1 h prior to PTZ 85 mg/Kg s.c., animals without tonic seizure within 30 min excluded", "result": 0.00, "unit": "s"}, {"measurement": "Mean time to tonic seizure in seconds", "setting": "[4]; 5 mg/kg by gavage 1 h prior to PTZ 85 mg/Kg s.c., animals without tonic seizure within 30 min excluded, listed as compound of Example 2", "result": "delay onset of tonic seizures"}, {"measurement": "protection from convulsions and associated lethality", "setting": "[4]; PTZ test, 5 mg/kg by gavage", "result": "protect mice from convulsions and associated lethality"}]}
